Read-outs that look alike come from different tables or passages of the source.
Legend:
NCI-H1650 = test: CellTiter Glo 3D spheroid proliferation/survival, 5 days, NCI-H1650, 0.0005-500 nM (Example 10); format: cell-based, human; settings: spheroids
Description: One target was assessed: EGFR.
The ability of the BCL-xL antibody drug conjugates to inhibit cell proliferation and survival was assessed using the Promega CellTiter-Glo® proliferation assay.
Cell lines were cultured in media that is optimal for their growth at 5% CO2, 37° C. in a tissue culture incubator. Prior to seeding for the proliferation assay, the cells were split at least 2 days before the assay to ensure optimal growth density. […] Cell viability and cell density were determined using a cell counter (Vi-Cell XR Cell Viability Analyzer, Beckman Coulter).
Cells were seeded at a density of 3,000 cells per well in 45 uL of standard growth media. Plates were spun in a centrifuge for 5 minutes and 1,000 RPM. Plates were incubated at 5% CO2, 37° C. for 72 hours in a tissue culture incubator. On the day of dosing, EGFR targeting BCL-xL ADCs were prepared at 1OX in standard growth media. The prepared drug treatments were then added to the cells resulting in final concentrations of 0.0005-500 nM and a final volume of 50 μL per well. Each drug concentration was tested in quadruplets. Plates were incubated at 5% CO2, 37° C. for 5 days in a tissue culture incubator.
Cell viability was assessed through the addition of 40 μL of CellTiter Glo 3D Cell Viability Assay substrate (Promega, cat #G9681), a reagent which lyses cells and measures total adenosine triphosphate (ATP) content. Wells were mixed thoroughly and plates were incubated at room temperature for 30 minutes to stabilize luminescent signals prior to reading using a luminescence reader (EnVision Multilabel Plate Reader, PerkinElmer).
To evaluate the effect of the drug treatments, luminescent counts from wells containing untreated cells (100% viability) were used to normalize treated samples. […] IC50 and Amax values were extrapolated from the resultant curves.

[1] = ADC stability study: % aggregates by SEC after incubation at 37° C. for 168 h; format: physicochemical
Description: Size Exclusion Chromatography: Size exclusion chromatography (SEC) was performed for quality control of each ADCs by measuring monomer percentage of the conjugate. The analysis was performed on analytical column Superdex 200 Increase 5/150 GL (GE Healthcare, 28990945) in isocratic conditions 100% PBS pH7.4 (Sigma Life Science, P3813, 10PAK), flow 0.45 mI/min for 12 minutes. The % aggregate fraction of the conjugate sample was quantified based on the peak area absorbance at 280 nm. Its calculation was based on the ratio between the high molecular weight eluent at 280 nm divided by the sum of peak area absorbance at the same wavelength of the high molecular weight and monomeric eluents multiplied by 100.
Characterization of the exemplary ADCs is summarized in Table 13 (coupling, LC-MS method, OAR, aggregation status, ADO stability and yield). The average OAR values were determined using the above LC-MS methods and the percentage of aggregates was measured by size exclusion chromatography (SEC) during the quality control of the ADO and after the stability study (incubation at 37° C. for 168 h).

ALL-SIL cells = test: CellTiterGlo (CTG) cell viability, 72 h, ALL-SIL (Example 8); format: cell-based
Description: ALL-SIL cells were cultivated in RPMI supplemented with 20% heat inactivated fetal bovine serum, penicillin (100 IU/ml), streptomycin (100 μg/ml) and L-glutamine (2 mM). Cell lines were cultured at 37° C. in a humidified atmosphere containing 5% CO2. Cells were seeded in 96 well clear bottom plates (96 well clear-bottom, white, Corning reference 3903) and exposed to the payloads or ADCs for 72 h (serially diluted; 9 concentrations each, triplicates). Effects of payloads or ADCs on cell viability were assessed after 3 days of incubation at 37° C./5% CO2 by quantification of cellular ATP levels using CellTiterGlo at 75 μL reagent/well. All the conditions were tested in triplicates. Luminescence was quantified on a multipurpose plate reader. IC50s were calculated using standard four-parametric curve fitting. […] Each experiment was performed at least twice, with results being reproducible.

DND-41 cells = test: CellTiterGlo (CTG) cell viability, 72 h, DND-41 (Example 8); format: cell-based
Description: DND-41 cells were cultivated in RPMI supplemented with 10% heat inactivated fetal bovine serum, penicillin (100 IU/ml), streptomycin (100 μg/ml) and L-glutamine (2 mM). Cell lines were cultured at 37° C. in a humidified atmosphere containing 5% CO2. […] Effects of payloads or ADCs on cell viability were assessed after 3 days of incubation at 37° C./5% CO2 by quantification of cellular ATP levels using CellTiterGlo at 75 μL reagent/well. All the conditions were tested in triplicates. Luminescence was quantified on a multipurpose plate reader. IC50s were calculated using standard four-parametric curve fitting.

ALL-SILL (T-ALL) = test: CellTiter-Glo viability 72 h, single agent or 1/1 combination, ALL-SIL (Example 9); format: cell-based; settings: single agent or 1/1 combination as labelled
Description: Cell lines were cultured in the media described above at 37° C. in a humidified atmosphere containing 5% CO2. […] Effects of payloads or ADCs on cell viability were assessed after 3 days of incubation at 37° C./5% CO2 by quantification of cellular ATP levels using CellTiter-Glo reagent (Promega Ref: G7571) at 75 μL reagent/well. All the conditions were tested in triplicates. Luminescence was quantified on a multipurpose plate reader. IC50s were calculated using standard four-parametric curve fitting.

H1650 cells = test: CellTiterGlo (CTG) cell viability, 3D, 120 h, H1650 (Example 8); format: cell-based, human
[2] = experiment n1, read-out: ALLSIL CTG 72 h IC50 nM n1
[3] = experiment n2, read-out: ALLSIL CTG 72 h IC50 nM n2
[4] = mean of n1 and n2, read-out: ALLSIL CTG 72 h IC50 nM Mean of n1 and n2
[5] = experiment n1, read-out: DND41 CTG 72 h IC50 nM n1
[6] = experiment n2, read-out: DND41 CTG 72 h IC50 nM n2
[7] = mean of n1 and n2, read-out: DND41 CTG 72 h IC50 nM Mean of n1 and n2
[8] = n1, read-out: ALL-SILL (T-ALL) IC50 n1
[9] = n2, read-out: ALL-SILL (T-ALL) IC50 n2
[10] = H1650 3D, experiment n1, read-out: H1650 3D CTG IC50 n1
[11] = H1650 3D, experiment n2, read-out: H1650 3D CTG IC50 n2
[12] = H1650 3D, mean of n1 and n2, read-out: H1650 3D CTG IC50 Mean of n1 and n2

Compound | Stab w1 +37° C. % Agg (by SEC) [1] | IC50 (ALL-SIL cells; [2]) | IC50 (ALL-SIL cells; [3]) | IC50 (ALL-SIL cells; [4]) | IC50 (DND-41 cells; [5]) | IC50 (DND-41 cells; [6]) | IC50 (DND-41 cells; [7]) | also measured
Cc1c(Nc2nc3ccccc3s2)nnc2c1CCCN2c1nc(C(=O)O)c(CCCOc2ccc(C#CC[N+](C)(C)Cc3ccc(NC(=O)[C@H](CCCNC(N)=O)NC(=O)[C@@H](NC(=O)CCOCCN4C(=O)CC(C)C4=O)C(C)C)cc3CN(C)C(=O)OCc3cn(CCOCCOCCOCCOCCOCCOCCOCCOCCC(=O)O)nn3)cc2F)s1 (mixture of isomers) [EGFR1-L3A-P1] |  |  |  |  |  |  |  | NCI-H1650 Amax (Span) (NCI-H1650): >100; IC50 (NCI-H1650; 0.0005-500 nM): < 0.686 nM
CC(=O)C1=C(CCCOc2ccc(C#CCC(C)(C)Cc3ccc(NC(=O)[C@H](CCCNC(N)=O)NC(=O)[C@@H](NC(=O)CCOCCN4C(=O)CC(C)C4=O)C(C)C)cc3)cc2C)CC(C2CCCC3C2=NN=C(NC2=Nc4ccccc4C2)C3C)=C1 (some centres unmarked) [Ab D - L9A-P1] | 8% | 0.025 nM | 0.037 nM | 0.031 nM | 0.16 nM | 0.14 nM | 0.15 nM | 
C=C(C)CCCC[C@](C)(NC(=O)[C@@](C)(NC(=O)CCOCCN1C(=O)CC(C)C1=O)C(C)C)C(=O)Nc1ccc(CC(C)(C)CC#Cc2ccc(OCCCC3=C(C(C)=O)N=C(N4CCCc5c4nnc(Oc4nc6ccccc6o4)c5C)C3)c(C)c2)c(S(=O)(=O)O)c1 (some centres unmarked) [Ab D - L27A-P1] | 9% | 0.028 nM | 0.018 nM | 0.023 nM | 0.21 nM | 0.28 nM | 0.245 nM | 
Cc1cc(N(CCCC(O)CO)C2=NC(C(=O)O)=C(CCCOc3ccc(C#CCN(C)C(=O)OCc4ccc(NC(=O)[C@H](CCCNC(N)=O)NC(=O)[C@@H](NC(=O)CCOCCN5C(=O)CC(C)C5=O)C(C)C)cc4)cc3F)C2)nnc1Nc1nc2ccccc2s1 (some centres unmarked) [Ab D - L9C-P46] | 6% | 0.18 nM | 0.2 nM | 0.19 nM | > 100 nM | > 100 nM | > 100 nM | 
Cc1c(Nc2nc3ccccc3s2)nnc2c1CCCN2c1ccc(-c2cnn(CC34CC5(C)CC(C)(CC(CCCNCCCO)(C5)C3)C4)c2C)c(C(=O)O)n1 [P40, 6-[3-(1,3-benzothiazol-2-ylamino)-4-methyl-6,7-dihydro-5H-pyrido[2,3-c]pyridazin-8-yl]-3-[1-[[3-[3-(3-hydroxypropylamino)propyl]-5,7-dimethyl-1-adamantyl]methyl]-5-methyl-pyrazol-4-yl]pyridine-2-carboxylic acid] |  |  |  |  |  |  |  | IC50 (ALL-SILL (T-ALL); [8]): 1.06 nM; IC50 (ALL-SILL (T-ALL); [9]): 1.26 nM
Cc1c(Nc2nc3ccccc3s2)nnc2c1CCCN2c1ccc(-c2cnn(C[C@]34C[C@]5(C)C[C@](C)(C3)C[C@@](OCCN3CCCCCC3)(C5)C4)c2C)c(C(=O)O)n1 [P33, 3-[1-[[3-[2-(azepan-1-yl)ethoxy]-5,7-dimethyl-1-adamantyl]methyl]-5-methyl-pyrazol-4-yl]-6-[3-(1,3-benzothiazol-2-ylamino)-4-methyl-6,7-dihydro-5H-pyrido[2,3-c]pyridazin-8-yl]pyridine-2-carboxylic acid] |  |  |  |  |  |  |  | IC50 (H1650 cells; Homo sapiens, NCI-H1650, H1650 3D, experiment n1, read-out: H1650 3D CTG IC50 n1): 0.89 nM; IC50 (H1650 cells; Homo sapiens, NCI-H1650, H1650 3D, experiment n2, read-out: H1650 3D CTG IC50 n2): 0.57 nM; IC50 (H1650 cells; Homo sapiens, NCI-H1650, H1650 3D, mean of n1 and n2, read-out: H1650 3D CTG IC50 Mean of n1 and n2): 0.73 nM; IC50 (ALL-SILL (T-ALL); mean, read-out: ALL-SILL (T-ALL) IC50 mean): 0.145 nM; IC50 (ALL-SILL (T-ALL); [8]): 0.1 nM; IC50 (ALL-SILL (T-ALL); [9]): 0.19 nM
Cc1cc(N(CCCO)C2=NC(C(=O)O)=C(CCCOc3ccc(C#CCN(C)C(=O)OCc4ccc(NC(=O)[C@](C)(CCCNC(N)=O)NC(=O)[C@@H](NC(=O)CCOCCN5C(=O)CC(C)C5=O)C(C)C)cc4)cc3F)C2)nnc1Nc1nc2ccccc2s1 (some centres unmarked) [Ab D - L9C-P45] | 2% | 0.36 nM | 0.38 nM | 0.37 nM | > 100 nM | > 100 nM | > 100 nM | 
Cc1c(Nc2nc3ccccc3s2)nnc2c1CCCN2c1nc(C(=O)O)c(CCCOc2ccc(C#CCN3CCN(C(=O)OCc4ccc(NC(=O)[C@H](CCCNC(N)=O)NC(=O)[C@@H](NC(=O)CCOCCN5C(=O)CC(C)C5=O)C(C)C)cc4)CC3)cc2F)s1 (some centres unmarked) [Ab D - L9C-P17] | 6% | 0.006 nM | 0.01 nM | 0.008 nM | 2.1 nM | 0.38 nM | 1.24 nM | 
C=C(C)CCCC[C@](C)(CC(=C)[C@@](C)(CC(=C)CCCCCC1C(=C)CC(C)C1=C)C(C)C)C(=C)Cc1ccc(CCC(=C)C(CCCCC)CCC[C@]23C[C@]4(C)C[C@](C)(C2)C[C@@](CC2C=CC(c5ccc(C(C)c6ccc(CC7=Cc8ccccc8C7)c(C)c6)cc5C(=C)C)=C2C)(C4)C3)cc1 (some centres unmarked) [Ab C - L9C-P29] | 16% |  |  |  |  |  |  | IC50 (H1650 cells; [10]): 0.13 nM; IC50 (H1650 cells; [11]): 0.09 nM; IC50 (H1650 cells; [12]): 0.11 nM
Cc1c(Nc2nc3ccccc3s2)nnc2c1CCCN2c1nc(C(=O)[O-])c(CCCOc2ccc(C#CC[N+](C)(C)Cc3ccc(NC(=O)[C@H](CCCNC(N)=O)NC(=O)[C@@H](NC(=O)CCOCCN4C(=O)CC(C)C4=O)C(C)C)cc3)cc2F)[nH]1 (some centres unmarked) [Ab C - L9A-P1] | 6% |  |  |  |  |  |  | IC50 (H1650 cells; [10]): 0.49 nM; IC50 (H1650 cells; [11]): 0.33 nM; IC50 (H1650 cells; [12]): 0.41 nM
